Assay results taken from ChEMBL document CHEMBL4043232, “A mimetic of the mSin3-binding helix of NRSF/REST ameliorates abnormal pain behavior in chronic pain models” (2017).
Calls of active or inactive are those of the source.

Tests used:
Mus musculus [1] = test: Antinociceptive activity in intermittent psychological stress treated partial sciatic nerve ligation C57BL/6J mouse model of fibromyalgia assessed as paw withdrawal latency time at 10 mg/kg, ip measured on day 19 (reference value: 3 sec); type: functional
Mus musculus [2] = test: Antinociceptive activity in intermittent cold stress treated partial sciatic nerve ligation C57BL/6J mouse model of fibromyalgia assessed as reversal of thermal hyperalgesia at 10 mg/kg, ip administered daily from day 5 to day 11 measured on day 12; type: functional, organism-based
Mus musculus [3] = test: Antinociceptive activity in intermittent psychological stress treated partial sciatic nerve ligation C57BL/6J mouse model of fibromyalgia assessed as paw withdrawal latency time at 10 mg/kg, ip measured on day 5 (reference value: 4 sec); type: functional
Mus musculus [4] = test: Antinociceptive activity in intermittent psychological stress treated partial sciatic nerve ligation C57BL/6J mouse model of fibromyalgia assessed as paw withdrawal latency time at 10 mg/kg, ip measured on day 12 (reference value: 4 sec); type: functional
Mus musculus [5] = test: Antinociceptive activity in partial sciatic nerve ligation C57BL/6J mouse model of neuropathic pain assessed as reduction in peripheral morphine analgesia at 10 mg/kg, ip administered daily from day 5 to day 11 measured on day 12; type: functional, organism-based
Mus musculus [6] = test: Antinociceptive activity in intermittent psychological stress treated partial sciatic nerve ligation C57BL/6J mouse model of fibromyalgia assessed as paw withdrawal latency time at 10 mg/kg, ip measured on day 19 (reference value: 4 sec); type: functional
Mus musculus [7] = test: Antinociceptive activity in intermittent psychological stress treated partial sciatic nerve ligation C57BL/6J mouse model of fibromyalgia assessed as paw withdrawal latency time at 10 mg/kg, ip measured on day 12 (reference value: 3 sec); type: functional
Mus musculus [8] = test: Antinociceptive activity in partial sciatic nerve ligation C57BL/6J mouse model of neuropathic pain assessed as reduction in C-fiber stimulated hyposensitivity at 10 mg/kg, ip administered daily from day 5 to day 11 measured on day 12; type: functional, organism-based
Mus musculus [9] = test: Antinociceptive activity in intermittent psychological stress treated partial sciatic nerve ligation C57BL/6J mouse model of fibromyalgia assessed as reduction in central morphine analgesia at 10 mg/kg, ip administered daily from day 5 to day 11 measured on day 12; type: functional, organism-based
Mus musculus [10] = test: Antinociceptive activity in intermittent cold stress treated partial sciatic nerve ligation C57BL/6J mouse model of fibromyalgia assessed as paw withdrawal latency time at 10 mg/kg, ip measured on day 5 (reference value: 10 sec); type: functional
[11] = target: T1, Paired amphipathic helix protein Sin3b (Mus musculus) (UniProt Q62141); test: Binding affinity to N-terminal GST-tagged mouse Sin3B PAH1 domain (28 to 107 residues) expressed in Escherichia coli BL21 (DE3) assessed as chemical shift perturbations at 100 uM by 1H-15N HSQC titration analysis
T1 sequence (whole entry): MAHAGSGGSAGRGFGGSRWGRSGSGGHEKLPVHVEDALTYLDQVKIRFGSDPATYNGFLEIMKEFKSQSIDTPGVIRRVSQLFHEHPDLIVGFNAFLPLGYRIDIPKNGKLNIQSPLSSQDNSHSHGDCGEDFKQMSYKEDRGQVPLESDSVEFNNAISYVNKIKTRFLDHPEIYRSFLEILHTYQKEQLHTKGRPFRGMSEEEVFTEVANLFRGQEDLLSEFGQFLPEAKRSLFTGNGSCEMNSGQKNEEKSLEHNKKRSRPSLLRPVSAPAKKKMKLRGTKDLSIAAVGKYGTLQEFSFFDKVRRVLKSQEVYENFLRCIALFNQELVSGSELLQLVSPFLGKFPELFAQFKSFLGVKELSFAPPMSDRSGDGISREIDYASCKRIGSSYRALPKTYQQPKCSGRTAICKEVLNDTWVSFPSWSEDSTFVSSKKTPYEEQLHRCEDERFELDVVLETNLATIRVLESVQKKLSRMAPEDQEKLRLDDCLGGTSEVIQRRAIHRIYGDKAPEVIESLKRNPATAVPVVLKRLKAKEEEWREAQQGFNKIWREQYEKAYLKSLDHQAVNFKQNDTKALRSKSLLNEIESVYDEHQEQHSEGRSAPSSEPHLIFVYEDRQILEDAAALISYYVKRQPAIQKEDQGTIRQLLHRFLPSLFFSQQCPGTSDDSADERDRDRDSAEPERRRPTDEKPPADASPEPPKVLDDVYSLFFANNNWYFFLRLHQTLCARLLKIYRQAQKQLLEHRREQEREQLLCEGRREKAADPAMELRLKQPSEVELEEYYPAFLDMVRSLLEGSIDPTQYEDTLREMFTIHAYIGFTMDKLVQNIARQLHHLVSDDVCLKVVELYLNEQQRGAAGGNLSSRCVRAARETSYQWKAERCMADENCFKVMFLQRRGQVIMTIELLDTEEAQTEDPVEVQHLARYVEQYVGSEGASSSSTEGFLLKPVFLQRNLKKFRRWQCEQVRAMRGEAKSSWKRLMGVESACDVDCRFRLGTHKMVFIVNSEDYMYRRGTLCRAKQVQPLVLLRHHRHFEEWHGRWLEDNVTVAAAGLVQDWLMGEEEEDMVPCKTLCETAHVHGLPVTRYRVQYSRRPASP

Mus musculus [12] = test: Antinociceptive activity in intermittent psychological stress treated partial sciatic nerve ligation C57BL/6J mouse model of fibromyalgia assessed as paw withdrawal latency time at 10 mg/kg, ip measured on day 5 (reference value: 3 sec); type: functional
Mus musculus [13] = test: Antinociceptive activity in intermittent psychological stress treated partial sciatic nerve ligation C57BL/6J mouse model of fibromyalgia assessed as reversal of thermal hyperalgesia at 10 mg/kg, ip administered daily from day 5 to day 11 measured on day 12; type: functional, organism-based
Mus musculus [14] = test: Antinociceptive activity in intermittent cold stress treated partial sciatic nerve ligation C57BL/6J mouse model of fibromyalgia assessed as reduction in central morphine analgesia at 10 mg/kg, ip administered daily from day 5 to day 11 measured on day 12; type: functional, organism-based
Mus musculus [15] = test: Antinociceptive activity in partial sciatic nerve ligation C57BL/6J mouse model of neuropathic pain assessed as C-fiber stimulated paw withdrawal threshold at 10 mg/kg, ip measured on day 5 (reference value: 3 microA); type: functional
Mus musculus [16] = test: Antinociceptive activity in intermittent cold stress treated partial sciatic nerve ligation C57BL/6J mouse model of fibromyalgia assessed as paw withdrawal latency time at 10 mg/kg, ip measured on day 12 (reference value: 13 sec); type: functional
Mus musculus [17] = test: Antinociceptive activity in partial sciatic nerve ligation C57BL/6J mouse model of neuropathic pain assessed as C-fiber stimulated paw withdrawal threshold at 10 mg/kg, ip measured on day 12 (reference value: 6 microA); type: functional
[18] = target: T1, Paired amphipathic helix protein Sin3b (Mus musculus); test: Inhibition of N-terminal GST-tagged mouse Sin3B PAH1 domain (28 to 107 residues) expressed in Escherichia coli BL21 (DE3) binding to NRSF/REST at 100 uM by 1H STD-NMR spectrometric analysis

| Compound | Time (Mus musculus [1]) [s] | Activity (Mus musculus [2]) | Time (Mus musculus [3]) [s] | Time (Mus musculus [4]) [s] | Activity (Mus musculus [5]) | Time (Mus musculus [6]) [s] | Time (Mus musculus [7]) [s] | Activity (Mus musculus [8]) | Activity (Mus musculus [9]) | Time (Mus musculus [10]) [s] | Activity [11] | Time (Mus musculus [12]) [s] | Activity (Mus musculus [13]) | Activity (Mus musculus [14]) | Activity (Mus musculus [15]) [microA] | Time (Mus musculus [16]) [s] | Activity (Mus musculus [17]) [microA] | inhibition [18] |
| --- | --- | --- | --- | --- | --- | --- | --- | --- | --- | --- | --- | --- | --- | --- | --- | --- | --- | --- |
| CC[C@H]1ON(C(=O)OC(C)C)[C@H]2CN(CCC(C)C)C(=O)[C@H](CCSC)N2C1=O | 3 | Active | 4 | 4 | Active | 4 | 3 | Active | Active | 10 | Active | 3 | Active | Active | 3 | 13 | 6 | Active |
| CCCC[C@H]1C(=O)N(CCC(C)C)C[C@@H]2N(C(=O)OC(C)C)CC3(CCCCC3)C(=O)N21 |  |  |  |  |  |  |  |  |  |  |  |  |  |  |  |  |  | Active |
